The target of the first assay is T1, human H4 receptor (Homo sapiens, UniProt Q9H3N8).
T1 construct: expressed in transfected cells
T1 sequence (Q9H3N8 whole entry): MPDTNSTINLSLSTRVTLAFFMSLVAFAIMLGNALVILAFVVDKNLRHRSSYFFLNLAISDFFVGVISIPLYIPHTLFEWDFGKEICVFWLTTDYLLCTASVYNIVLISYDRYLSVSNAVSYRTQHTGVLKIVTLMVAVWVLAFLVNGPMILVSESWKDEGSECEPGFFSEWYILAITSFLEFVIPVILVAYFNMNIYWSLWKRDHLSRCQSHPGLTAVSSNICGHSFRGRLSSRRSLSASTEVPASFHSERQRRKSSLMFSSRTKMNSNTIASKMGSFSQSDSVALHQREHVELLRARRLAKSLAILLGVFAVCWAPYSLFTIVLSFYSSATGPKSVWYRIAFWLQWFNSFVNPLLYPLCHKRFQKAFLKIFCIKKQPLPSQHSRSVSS
As to the kind of experiment: [3H]Histamine binding on membranes of CHO cells stably expressing human H4 receptor.
Conditions: not given
Put shortly: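 First, thawed CHO membranes carrying human H4 were diluted to 20 μg protein per well in pH 7.4 Tris/EDTA buffer. Next, incubation was ended by rapid filtration through PEI-treated GF/B filters followed by cold rinses. Finally, retained radioactivity was counted; 10 μM JNJ 7777120 marked nonspecific binding.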
As to `CN1CCC(COC(c2cccc(Br)c2)c2nc3ccccc3s2)C1` (stereo not shown) [Example 465], the Ki or IC50 activity class is < 30 nM.

For `CN1CCC(OC(c2cccc(OC3CC4CNCC4C3)c2)c2nc3ccccc3s2)CC1` (stereo not shown) [Example 466], the Ki or IC50 activity class was < 30 nM.

For the molecule `CN1CCC(OC(c2cccc(N3CC4CC(N)CC4C3)c2)c2nc3ccccc3s2)CC1` (stereo not shown) [Example 471], the Ki or IC50 activity class was < 300 nM.

On to `CN1CCC(OC(c2cccc(I)c2)c2nc3ccccc3n2C)CC1` (stereo not shown) [Example 472, 2-[(3-iodophenyl)(1-methylpiperidin-4-yloxy)methyl]-1-methyl-1H-benzimidazole], for which the Ki or IC50 activity class was < 300 nM.

Consider `CN1CCC(OC(c2cccc(SCC=CCN)c2)c2nc3ccccc3[nH]2)CC1` (stereo not shown) [Example 473], for which the Ki or IC50 activity class is < 30 nM.

`CN1CCC(OC(c2cccc(OCCCF)c2)c2nc3ccccc3[nH]2)CC1` (stereo not shown) [Example 475]: the Ki or IC50 activity class is < 300 nM.

Turning to `CN1CCC(OC(c2cccc(OCCF)c2)c2nc3ccccc3[nH]2)CC1` (stereo not shown) [Example 476], the Ki or IC50 activity class was < 30 nM.

For `CN1CCC(OC(c2cccc(OC3CCC(N)CC3)c2)c2nc3ccccc3s2)CC1` (stereo not shown) [Example 477], the Ki or IC50 activity class is < 1000 nM.

In the case of `CN1CCC(OC(c2cccc(SCC3NC(N)=NC3=O)c2)c2nc3ccccc3[nH]2)CC1` (stereo not shown) [Example 479, 2-amino-5-{3-[(1H-benzimidazol-2-yl)(1-methylpiperidin-4-yloxy)methyl]phenylsulfanylmethyl}-1,5-dihydroimidazol-4-one], the Ki or IC50 activity class is < 30 nM.

For `CN1CCC(OC(c2cccc(C#CCCCCN)c2)c2nc3ccccc3n2C)CC1` (stereo not shown) [Example 480, 6-{3-[(1-methyl-1H-benzimidazol-2-yl)(1-methylpiperidin-4-yloxy)methyl]phenyl}hex-5-ynylamine], the Ki or IC50 activity class is < 300 nM.

Consider `CN1CCC(OC(c2cccc(N3CCCC3CN)c2)c2nc3ccccc3s2)CC1` (stereo not shown) [Example 482], for which the Ki or IC50 activity class was < 30 nM.

For `CNC1CCN(c2cccc(C(OC3CCN(C)CC3)c3nc4ccccc4s3)c2)C1` (stereo not shown) [Example 483], the Ki or IC50 activity class was < 300 nM.

Regarding `CN1CCC(OC(c2cccc(N3CCC(N(C)C)C3)c2)c2nc3ccccc3s2)CC1` (stereo not shown) [Example 484], the Ki or IC50 activity class is < 30 nM.

In the case of `CN1CCC(OC(c2cccc(N3CC4CN(C)CC4C3)c2)c2nc3ccccc3s2)CC1` (stereo not shown) [Example 485], the Ki or IC50 activity class was < 1000 nM.

On to `COc1ccc(F)c(C(OC2CCN(C)CC2)c2nc3ccccc3[nH]2)c1` (stereo not shown) [Example 486], for which the Ki or IC50 activity class was < 30 nM.

`CN1CCC(OC(c2nc3ccccc3[nH]2)c2cc(O)ccc2F)CC1` (stereo not shown) [Example 487]: the Ki or IC50 activity class is < 30 nM.

Take `CN1CCC(OC(c2cccc(C=CCN)c2)c2nc3ccccc3[nH]2)CC1` (stereo not shown) [Example 488]: the Ki or IC50 activity class is < 1000 nM.

Take `CN1CCC(OC(c2nc3ccccc3[nH]2)c2cc(OCCF)ccc2F)CC1` (stereo not shown) [Example 489]: the Ki or IC50 activity class is < 30 nM.

`Cc1ccc(F)c(C(OC2CCN(C)CC2)c2nc3ccccc3[nH]2)c1` (stereo not shown) [Example 490]: the Ki or IC50 activity class was < 300 nM.

Take `CN1CCC(OC(c2cccc(N3CCC(F)(F)C3)c2)c2nc3ccccc3[nH]2)CC1` (stereo not shown) [Example 491]: the Ki or IC50 activity class is < 1000 nM.

For `CN1CCC(OC(c2cccc(N3CC4CC(F)CC4C3)c2)c2nc3ccccc3s2)CC1` (stereo not shown) [Example 492], the Ki or IC50 activity class was < 1000 nM.

On to `CN1CCC(OC(c2cccc(SCCCCN)c2)c2nc3cc(F)c(F)c(F)c3[nH]2)CC1` (stereo not shown) [Example 493], for which the Ki or IC50 activity class was < 30 nM.

On to `CN1CCC(OC(c2cccc(SC[C@H]3C[C@H]3CN)c2)c2nc3ccccc3[nH]2)CC1` (stereo partly shown) [Example 494], for which the Ki or IC50 activity class is < 30 nM.

Regarding `CN1CCC(OC(c2cccc(SCCCCN)c2)c2nc3cc(F)c(F)cc3[nH]2)CC1` (stereo not shown) [Example 495], the Ki or IC50 activity class is < 30 nM.

`CN1CCC(OC(c2nc3ccccc3[nH]2)c2cc(Cl)ccc2F)CC1` (stereo not shown) [Example 496]: the Ki or IC50 activity class was < 300 nM.

For `CCOCCn1c(C(OC2CCN(C)CC2)c2cccc(I)c2)nc2ccccc21` (stereo not shown) [Example 497, 1-(2-ethoxyethyl)-2-[(3-iodophenyl)(1-methylpiperidin-4-yloxy)methyl]-1H-benzimidazole], the Ki or IC50 activity class is < 1000 nM.

For `CN1CCC(OC(c2nc3ccccc3[nH]2)c2cc(C(F)(F)F)ccc2F)CC1` (stereo not shown) [Example 498], the Ki or IC50 activity class is < 300 nM.

Regarding `CN1CCC(OC(c2cccc(C=CCNC(=N)N)c2)c2nc3ccccc3[nH]2)CC1` (stereo not shown) [Example 499], the Ki or IC50 activity class was < 30 nM.

In the case of `CCOCCn1c(C(OC2CCN(C)CC2)c2cccc(C#CCCCCN)c2)nc2ccccc21` (stereo not shown) [Example 500], the Ki or IC50 activity class is < 300 nM.

Turning to `COCCn1c(C(OC2CCN(C)CC2)c2cccc(C#CCCCCN)c2)nc2ccccc21` (stereo not shown) [Example 501], the Ki or IC50 activity class is < 300 nM.

With `Brc1cccc(C(OCC2CNC2)c2nc3ccccc3[nH]2)c1` (stereo not shown) [Example 502], the Ki or IC50 activity class was < 1000 nM.

Take `CCn1c(C(OC2CCN(C)CC2)c2cccc(C#CCCCCN)c2)nc2ccccc21` (stereo not shown) [Example 503]: the Ki or IC50 activity class was < 300 nM.

Regarding `COc1ccc(F)c(C(OCC2CCN(C)C2)c2nc3ccccc3[nH]2)c1` (stereo not shown) [Example 504], the Ki or IC50 activity class was < 30 nM.

`CN1CCC(OC(c2cccc(C=C3NC(=N)NC3=O)c2)c2nc3ccccc3[nH]2)CC1` (stereo not shown) [Example 505, 5-{3-[(1H-benzimidazol-2-yl)(1-methylpiperidin-4-yloxy)methyl]benzylidene}-2-iminoimidazolidin-4-one]: the Ki or IC50 activity class is < 1000 nM.

With `CN1CC(COC(c2cccc(Br)c2)c2nc3ccccc3[nH]2)C1` (stereo not shown) [Example 506], the Ki or IC50 activity class was < 300 nM.

On to `CN1CC(COC(c2cccc(SCCCCN)c2)c2nc3ccccc3[nH]2)C1` (stereo not shown) [Example 507, 4-{3-[(1H-benzimidazol-2-yl)(1-methylazetidin-3-ylmethoxy)methyl]phenylsulfanyl}butylamine], for which the Ki or IC50 activity class was < 30 nM.

Turning to `CN1CCC(OC(c2cccc(SCCCF)c2)c2nc3ccccc3[nH]2)CC1` (stereo not shown) [Example 508], the Ki or IC50 activity class is < 30 nM.

Regarding `CN1CCC(OC(c2nc3cc(F)ccc3[nH]2)c2cc(OC(F)(F)F)ccc2F)CC1` (stereo not shown) [Example 509], the Ki or IC50 activity class was < 30 nM.

Consider `CN1CCC(OC(c2nc3ccccc3[nH]2)c2c(F)cccc2F)CC1` (stereo not shown) [Example 512], for which the Ki or IC50 activity class is < 30 nM.

`Cc1ccc(C(OC2CCN(C)CC2)c2nc3ccccc3[nH]2)c(F)c1` (stereo not shown) [Example 513]: the Ki or IC50 activity class was < 30 nM.

For the molecule `CCSc1ccc(F)c(C(OC2CCN(C)CC2)c2nc3ccccc3[nH]2)c1` (stereo not shown) [Example 514], the Ki or IC50 activity class was < 30 nM.

For the molecule `Fc1ccc(OC(F)(F)F)cc1C(OCC1CNC1)c1nc2ccccc2[nH]1` (stereo not shown) [Example 515], the Ki or IC50 activity class is < 1000 nM.

Regarding `CN1CC(COC(c2nc3ccccc3[nH]2)c2cc(OC(F)(F)F)ccc2F)C1` (stereo not shown) [Example 516], the Ki or IC50 activity class was < 300 nM.

On to `CN1CCC(OC(c2cccc(SC(F)(F)F)c2)c2nc3ccccc3[nH]2)CC1` (stereo not shown) [Example 517], for which the Ki or IC50 activity class was < 30 nM.

As to `CN1CCC(OC(c2ccc(F)c(OC(F)(F)F)c2)c2nc3ccccc3[nH]2)CC1` (stereo not shown) [Example 518], the Ki or IC50 activity class was < 1000 nM.

Consider `CCCOc1ccc(F)c(C(OC2CCN(C)CC2)c2nc3ccccc3[nH]2)c1` (stereo not shown) [Example 519], for which the Ki or IC50 activity class was < 30 nM.

Turning to `CCSc1ccc(F)c(C(OC2CCN(C)CC2)c2nc3ccccc3[nH]2)c1F` (stereo not shown) [Example 520], the Ki or IC50 activity class is < 300 nM.

`CN1CCC(OC(c2ccc3c(c2)OC(F)(F)O3)c2nc3ccccc3[nH]2)CC1` (stereo not shown) [Example 521]: the Ki or IC50 activity class is < 1000 nM.

Turning to `CN1CCC(OC(c2nc3ccccc3[nH]2)c2cc(OC(F)(F)F)ccc2Cl)CC1` (stereo not shown) [Example 524], the Ki or IC50 activity class is < 300 nM.

In the case of `CN1CCC(OC(c2nc3ccccc3o2)c2cc(OC(F)(F)F)ccc2F)CC1` (stereo not shown) [Example 525, 2-[(2-fluoro-5-trifluoromethoxyphenyl)(1-methylpiperidin-4-yloxy)methyl]benzoxazole], the Ki or IC50 activity class was < 300 nM.

As for `CN1CCC(OC(c2nc3ccccc3s2)c2cc(OC(F)(F)F)ccc2F)CC1` (stereo not shown) [Example 526], the Ki or IC50 activity class was < 30 nM.

As for `CSCc1cccc(C(OC2CCN(C)CC2)c2nc3ccccc3[nH]2)c1` (stereo not shown) [Example 528, 2-[(1-methylpiperidin-4-yloxy)(3-methylsulfanylmethylphenyl)methyl]-1H-benzimidazole], the Ki or IC50 activity class was < 300 nM.

For `CN1CCC(OC(c2nc3cccc(F)c3[nH]2)c2cc(OC(F)(F)F)ccc2F)CC1` (stereo not shown) [Example 529], the Ki or IC50 activity class is < 300 nM.

Turning to `Cc1cc(F)c(C(OC2CCN(C)CC2)c2nc3ccccc3s2)c(F)c1` (stereo not shown) [Example 531], the Ki or IC50 activity class was < 30 nM.

For `CN1CCC(OC(c2nc3ccccc3s2)c2c(F)cc(Cl)cc2F)CC1` (stereo not shown) [Example 532], the Ki or IC50 activity class was < 300 nM.

With `Cc1cc(F)c(C(OC2CCN(C)CC2)c2nc3ccccc3o2)c(F)c1` (stereo not shown) [Example 536], the Ki or IC50 activity class was < 30 nM.

For `c1ccc2[nH]c(C(OC3CCNCC3)c3ccsc3)nc2c1` (stereo not shown) [Example 538], the Ki or IC50 activity class is < 1000 nM.

As to `CN1CCC(OC(c2ccsc2)c2nc3ccccc3[nH]2)CC1` (stereo not shown) [Example 539], the Ki or IC50 activity class was < 300 nM.

In the case of `c1csc(C(OC2CCNCC2)c2nc3ccccc3[nH]2)c1` (stereo not shown) [Example 544], the Ki or IC50 activity class is < 1000 nM.

Take `Cc1ccc(C(OC2CCN(C)CC2)c2nc3ccccc3o2)c(F)c1` (stereo not shown) [Example 545]: the Ki or IC50 activity class was < 300 nM.

`CN1CCC(OC(c2nc3ccccc3[nH]2)c2cccs2)CC1` (stereo not shown) [Example 546]: the Ki or IC50 activity class is < 300 nM.

Take `CN1CCC(OC(c2cc(C(F)(F)F)cc(C(F)(F)F)c2)c2nc3ccccc3[nH]2)CC1` (stereo not shown) [Example 547]: the Ki or IC50 activity class was < 1000 nM.

The same assay, now with this note: human H4 receptor; evaluated in the GTPγ[35S] assay or in the [3H]histamine binding assay (not stated which per compound); Ki or IC50 class.
On to `CN1CCC(OC(c2cccc(SCC=CCN)c2)c2nc3ccccc3[nH]2)CC1` (stereo not shown) [Example 474], for which the Ki or IC50 activity class was < 30 nM.

For the molecule `CC(C)C(=O)N(CCSc1cccc(C(OC2CCN(C)CC2)c2nc3ccccc3[nH]2)c1)C(=N)N` (stereo not shown) [Example 478], the Ki or IC50 activity class was < 300 nM.

The values above are taken from patent publication US8802664B2 (Bioproject, priority 2010, dated 2014).
